In US8183210B2, “Reconstituted surfactants having improved properties” (Chiesi Farmaceutici S.p.A., priority 2006, dated 2012):
Bridge positions count the residues as written; N and C are the ends. Ends that are not written are not given here.

Tested on: premature newborn rabbits
Assay: Surfactant preparations in ventilated premature newborn rabbits without PEEP (model of RDS): lung gas volumes and tidal volumes
Type: in vivo, rabbit
Conditions: no PEEP; for lung gas volumes (median): reconstituted surfactant, 2% w/w of each named peptide in DPPC:POPG 68:31 w/w, 80 mg/ml, 2.5 ml/kg at birth, FIG. 3
Description: The surfactant preparations were assayed in premature newborn rabbits, obtained by hysterectomy at the gestational age of 27 days. The experiments were performed without applying a positive end expiratory pressure (PEEP). As the SP-C analog, the polypeptide referred to as SP-C33 was used which was prepared according to Example 1. As the analog of the protein SP-B, oxidized Mini-B (ox Mini-B) was used which was prepared according to Example 2.
The animals were treated at birth with reconstituted surfactant preparations containing, as lipid carrier, the phospholipid mixture DPPC:POPG in the ratio 68:31 w/w. The phospholipids were mixed with 2 or 4% w/w SPC-33, 2% w/w ox Mini-B, or 2% w/w SPC-33 plus 2% w/w ox Mini-B. Animals receiving the same dose of Curosurf® served as positive controls, and non-treated littermates served as negative controls. All surfactant preparations were administered at a concentration of 80 mg/ml and at a standard dose of 2.5 ml/kg.
The immature newborn rabbits were ventilated in parallel with a standardized sequence of peak insufflation pressures. To open up the lungs, pressure was first set at 35 cmH2O for 1 minute. After this recruitment manoeuvre, pressure was lowered to 25 cmH2O for 15 minutes and further on to 20 and 15 cm H2O. Finally, the pressure was raised again to 25 cmH2O for 5 minutes, after which the lungs were ventilated for additional 5 minutes with nitrogen and then excised for gas volume measurements. Both lung gas volumes and tidal volumes expressed as ml/kg were measured, and the results, given as median values, are reported in FIGS. 3 and 4, respectively.

| Sequence | lung gas volumes (median) | lung gas volumes, effect of increasing SP-C33 content (SP-C33 content raised from 2 to 4% w/w in DPPC:POPG 68:31) |
| --- | --- | --- |
| CWLCRALIKRIQAMIPKGGRMLPQLVCRLVLRCS (disulfide 1-33, 4-27) [ox Mini-B, SP-B analog] | about 2 ml/kg |  |
| IPSSPVHLKRLKLLLLLLLLILLLILGALLMGL [SP-C33] | about 4 ml/kg | did not increase lung gas volumes |
